Measurements as given in US20100144712A1 (priority 2007, published 2010).
In brackets after ≈: the same amount, converted by molar mass.

Legend:
Assay type in all cases: cell-based
[1] = test system: Candida albican ATCC MYA-574; experiment: In vitro antifungal activity (MIC80), Candida albican ATCC MYA-574; conditions: Candida; Table 2, MYA 574; read-out: Minimal inhibitory concentration (MIC80)
Procedure: (§1) In vitro antifungal activities of the inventive antifungal compounds were evaluated using test strains including Candida albican (ATCC 90873, 204276, 62342, 64124, 64550, 96901, MYA-573, MYA-574, MYA-575, MYA-576, MYA-1003) and Aspergillus fumigatus (ATCC 16424). Test samples and positive control samples were prepared by dissolving the inventive compounds and comparative compounds, i.e., amphotericin B, fluconazole and itraconazole, in DMSO, respectively, and each successively diluted with medium to obtain test and positive control solutions having test compound concentrations of 0.125 μg/ml to a maximum concentration not generating turbidity. Minimal inhibitory concentration (MIC80) of each compound was determined as the lowest concentration of the test compounds required to reduce growth by 80% relative to a control strain not treated.
(§2) 1) Test strain: Candida albican ATCC 90873, 204276, 62342, 64124, 64550, 96901, MYA-573, MYA-574, MYA-575, MYA-576, MYA-1003, and Aspergillus fumigatus ATCC 16424 were commercially obtained from The American Type Culture Collection (ATCC) and subcultured in CHEMON Co. Ltd. (amphotericin B was commercially purchased from Sigma, and fluconazole and itraconazole were prepared according to methods described in British Patent No. 2,099,818; and U.S. Pat. No. 4,267,179, respectively).
(§3) 2) Medium and culture condition: Candida albican was cultured in Sabourad Dextrose Agar, YM Agar or Potato Dextrose Agar according to ATCC information at a temperature of 37° C., 35° C., 30° C. or 25° C. Aspergillus fumigatus was cultured in Malt Extract Agar or Potato Dextrose Agar at a temperature ranging from 24 to 27° C.
(§4) 3) Preparation of test samples: the inventive compounds and comparative compounds were each diluted with DMSO to obtain 1 to 2 ml of a test sample in a concentration of 100-folds of the determining maximum concentration (256 μg/ml).
(§5) The test samples were each successively diluted with RPMI 1640 to obtain test solutions having concentrations of […] in a 12×75 mm sterilized disposable culture tube. The final concentration of DMSO was adjusted to […] (v/v).
(§6) 5) Preparation of strain solution and inoculation
(§7) Candida albican strains were each subcultured in Sabourad Dextrose Agar, YM Agar or Potato Dextrose Agar medium at 35° C. for 2˜3 days. In the case of yeasts, a single colony was taken from prominent colonies and suspended in 0.85% sterile physiological saline solution and the turbidity of the suspension was adjusted to 80˜82% at 530 nm, and then diluted 50-fold with RPMI 1640 medium to 1.0×10^3˜5.0×10^3 CFU/ml. The turbidity of fungi was adjusted to 80˜82% and the suspension was diluted 50-fold to […]. Aspergillus fumigatus strains were subcultured in Malt Extract Agar for 7˜10 days, and a single colony was taken from prominent colonies and suspended in 0.85% sterile physiological saline solution and the suspension was adjusted to 0.108 at 530 nm, and then diluted 1000-fold with RPMI 1640 medium to 0.4×10^2˜5×10^4 CFU/ml. The turbidity of fungi was adjusted to 80˜82% and the suspension was diluted 50-fold to 0.4102˜0.5104 CFU/ml.
(§8) The strain solutions thus obtained were each seeded into a sterilized 96-well microplate, 0.1 ml of each test solution were added thereto, and […] of alamarblue was treated to each well (Biosource, #DAL1100). This procedure was repeated 2 times.
(§9) Minimal inhibitory concentration (MIC80) of each compound was determined as the lowest concentration of the test compounds required to reduce growth by 80% relative to a control strain not treated.

[2] = test system: Candida albican ATCC MYA-573; experiment: In vitro antifungal activity (MIC80), Candida albican ATCC MYA-573; conditions: Candida; Table 2, MYA 573; read-out: Minimal inhibitory concentration (MIC80)
Procedure: as §1, §2, §3, §4, §5, §6, §7, §8, §9

[3] = test system: Candida albican ATCC 90873; experiment: In vitro antifungal activity (MIC80), Candida albican ATCC 90873; conditions: Candida, ATCC90873; Table 2, ATCC 90873; read-out: Minimal inhibitory concentration (MIC80)
Procedure: as §1, §2, §3, §4, §5, §6, §7, §8, §9

[4] = test system: Candida albican ATCC MYA-576; experiment: In vitro antifungal activity (MIC80), Candida albican ATCC MYA-576; conditions: Candida; Table 2, MYA 576; read-out: Minimal inhibitory concentration (MIC80)
Procedure: as §1, §2, §3, §4, §5, §6, §7, §8, §9

[5] = test system: Candida albican ATCC MYA-1003; experiment: In vitro antifungal activity (MIC80), Candida albican ATCC MYA-1003; conditions: Candida; Table 2, MYA 1003; read-out: Minimal inhibitory concentration (MIC80)
Procedure: as §1, §2, §3, §4, §5, §6, §7, §8, §9

[6] = test system: Candida albican ATCC 62342; experiment: In vitro antifungal activity (MIC80), Candida albican ATCC 62342; conditions: Candida, ATCC62342; Table 2, 62342; read-out: Minimal inhibitory concentration (MIC80)
Procedure: as §1, §2, §3, §4, §5, §6, §7, §8, §9

[7] = test system: Candida albican ATCC 96901; experiment: In vitro antifungal activity (MIC80), Candida albican ATCC 96901; conditions: Candida, ATCC96901; Table 2, ATCC 96901; read-out: Minimal inhibitory concentration (MIC80)
Procedure: as §1, §2, §3, §4, §5, §6, §7, §8, §9

[8] = test system: Candida albican ATCC 64124; experiment: In vitro antifungal activity (MIC80), Candida albican ATCC 64124; conditions: Candida, ATCC64124; Table 2, 64124; read-out: Minimal inhibitory concentration (MIC80)
Procedure: as §1, §2, §3, §4, §5, §6, §7, §8, §9

[9] = test system: Candida albican ATCC MYA-575; experiment: In vitro antifungal activity (MIC80), Candida albican ATCC MYA-575; conditions: Candida; Table 2, MYA 575; read-out: Minimal inhibitory concentration (MIC80)
Procedure: as §1, §2, §3, §4, §5, §6, §7, §8, §9

[10] = test system: Candida albican ATCC 64550; experiment: In vitro antifungal activity (MIC80), Candida albican ATCC 64550; conditions: Candida, ATCC64550; Table 2, 64550; read-out: Minimal inhibitory concentration (MIC80)
Procedure: as §1, §2, §3, §4, §5, §6, §7, §8, §9

Row | Structure (SMILES) | MIC80 [1] | MIC80 [2] | MIC80 [3] | MIC80 [4] | MIC80 [5] | MIC80 [6] | MIC80 [7] | MIC80 [8] | MIC80 [9] | MIC80 [10]
1 | CC(N1CCCN(c2ccc(C#N)nc2)CC1)C(O)(Cn1cncn1)c1ccc(F)cc1F (stereo not drawn) [Example 39] | 2 µg/mL (≈ 4.41 µM) | 1 µg/mL (≈ 2.21 µM) | 0.125 µg/mL (≈ 0.276 µM) | 0.125 µg/mL (≈ 0.276 µM) | 16 µg/mL (≈ 35.3 µM) | 4 µg/mL (≈ 8.82 µM) | 32 µg/mL (≈ 70.6 µM) | 128 µg/mL (≈ 282 µM) | 0.125 µg/mL (≈ 0.276 µM) | 2 µg/mL (≈ 4.41 µM)
2 | CC(C)Oc1ccc(N2CCN([C@H](C)[C@](O)(Cn3cncn3)c3ccc(F)cc3F)CC2)cn1 [Example 33, (2R,3R)-2-(2,4-difluorophenyl)-3-(4-(6-(isopropyloxy)pyridin-3-yl)piperazin-1-yl)-1-(1H-1,2,4-triazol-1-yl)butan-2-ol] | 4 µg/mL (≈ 8.46 µM) | 2 µg/mL (≈ 4.23 µM) | 0.125 µg/mL (≈ 0.265 µM) | 0.125 µg/mL (≈ 0.265 µM) | > 128 µg/mL | 2 µg/mL (≈ 4.23 µM) | 64 µg/mL (≈ 135 µM) | 64 µg/mL (≈ 135 µM) | 0.125 µg/mL (≈ 0.265 µM) | 4 µg/mL (≈ 8.46 µM)
3 | C[C@@H](N1CCN(c2nc3cc(Cl)ccc3o2)CC1)[C@](O)(Cn1cncn1)c1ccc(F)cc1F [Example 5, (2R,3R)-3-(4-(5-chlorobenzooxazol-2-yl)piperazin-1-yl)-2-(2,4-difluorophenyl)-1-(1H-1,2,4-triazol-1-yl)butan-2-ol] | 0.5 µg/mL (≈ 1.02 µM) | 0.25 µg/mL (≈ 0.511 µM) | 0.125 µg/mL (≈ 0.256 µM) | 0.125 µg/mL (≈ 0.256 µM) | > 128 µg/mL | 0.125 µg/mL (≈ 0.256 µM) | 2 µg/mL (≈ 4.09 µM) | 2 µg/mL (≈ 4.09 µM) | 0.125 µg/mL (≈ 0.256 µM) | 0.5 µg/mL (≈ 1.02 µM)
4 | C[C@@H](N1CCCN(c2ccc3ccccc3n2)CC1)[C@](O)(Cn1cncn1)c1ccc(F)cc1F [Example 40, (2R,3R)-2-(2,4-difluorophenyl)-3-(4-(quinolin-2-yl)-1,4-diazepan-1-yl)-1-(1H-1,2,4-triazol-1-yl)butan-2-ol] | 2 µg/mL (≈ 4.18 µM) | 0.5 µg/mL (≈ 1.04 µM) | 0.125 µg/mL (≈ 0.261 µM) | 0.125 µg/mL (≈ 0.261 µM) | > 128 µg/mL | 0.25 µg/mL (≈ 0.522 µM) | 16 µg/mL (≈ 33.4 µM) | 8 µg/mL (≈ 16.7 µM) | 0.125 µg/mL (≈ 0.261 µM) | 2 µg/mL (≈ 4.18 µM)
5 | C[C@@H](N1CCN(c2nc3ccc(N4CCCCC4)cc3s2)CC1)[C@](O)(Cn1cncn1)c1ccc(F)cc1F [Example 10, (2R,3R)-2-(2,4-difluorophenyl)-3-(4-(6-(piperidin-1-yl)benzothiazol-2-yl)piperazin-1-yl)-1-(1H-1,2,4-triazol-1-yl)butan-2-ol] | 0.5 µg/mL (≈ 0.903 µM) | 0.5 µg/mL (≈ 0.903 µM) | 0.125 µg/mL (≈ 0.226 µM) | 0.125 µg/mL (≈ 0.226 µM) | > 128 µg/mL | 0.125 µg/mL (≈ 0.226 µM) | 4 µg/mL (≈ 7.22 µM) | 4 µg/mL (≈ 7.22 µM) | 0.125 µg/mL (≈ 0.226 µM) | 0.5 µg/mL (≈ 0.903 µM)

The remaining lines, values ahead:

Row | MIC80 [1] | MIC80 [2] | MIC80 [3] | MIC80 [4] | MIC80 [5] | MIC80 [6] | MIC80 [7] | MIC80 [8] | MIC80 [9] | MIC80 [10] | Structure (SMILES)
6 | 8 µg/mL (≈ 14 µM) | 4 µg/mL (≈ 7.01 µM) | 0.25 µg/mL (≈ 0.438 µM) | 0.5 µg/mL (≈ 0.876 µM) | 64 µg/mL (≈ 112 µM) | 2 µg/mL (≈ 3.5 µM) | 16 µg/mL (≈ 28 µM) | 32 µg/mL (≈ 56.1 µM) | 1 µg/mL (≈ 1.75 µM) | 4 µg/mL (≈ 7.01 µM) | C[C@@H](N1CCN(c2cccc(N(C)CCCN3CCOCC3)n2)CC1)[C@](O)(Cn1cncn1)c1ccc(F)cc1F [Example 27, (2R,3R)-2-(2,4-difluorophenyl)-3-(4-(6-(methyl(3-morpholinopropyl)amino)pyridin-2-yl)piperazin-1-yl)-1-(1H-1,2,4-triazol-1-yl)butan-2-ol]
7 | > 128 µg/mL | 32 µg/mL (≈ 64.2 µM) | 0.5 µg/mL (≈ 1 µM) | 0.5 µg/mL (≈ 1 µM) | > 128 µg/mL | 128 µg/mL (≈ 257 µM) | > 128 µg/mL | > 128 µg/mL | 0.5 µg/mL (≈ 1 µM) | 64 µg/mL (≈ 128 µM) | C[C@@H](N1CCN(c2cccc(OC3CCCC3)n2)CC1)[C@](O)(Cn1cncn1)c1ccc(F)cc1F [Example 22, (2R,3R)-3-(4-(6-(cyclopentyloxy)pyridin-2-yl)piperazin-1-yl)-2-(2,4-difluorophenyl)-1-(1H-1,2,4-triazol-1-yl)butan-2-ol]
8 | 2 µg/mL (≈ 3.68 µM) | 2 µg/mL (≈ 3.68 µM) | 0.125 µg/mL (≈ 0.23 µM) | 0.125 µg/mL (≈ 0.23 µM) | 128 µg/mL (≈ 235 µM) | 0.5 µg/mL (≈ 0.92 µM) | 32 µg/mL (≈ 58.9 µM) | 32 µg/mL (≈ 58.9 µM) | 0.125 µg/mL (≈ 0.23 µM) | 2 µg/mL (≈ 3.68 µM) | C[C@@H](N1CCN(c2ccc(OCCN3CCOCC3)nc2)CC1)[C@](O)(Cn1cncn1)c1ccc(F)cc1F [Example 34, (2R,3R)-2-(2,4-difluorophenyl)-3-(4-(6-(2-morpholinoethoxy)pyridin-3-yl)piperazin-1-yl)-1-(1H-1,2,4-triazol-1-yl)butan-2-ol]
9 | > 128 µg/mL | > 128 µg/mL | 0.25 µg/mL (≈ 0.452 µM) | 1 µg/mL (≈ 1.81 µM) | > 128 µg/mL | > 128 µg/mL | > 128 µg/mL | > 128 µg/mL | 1 µg/mL (≈ 1.81 µM) | > 128 µg/mL | C[C@@H](N1CCN(c2cccc(N(C)CCc3cccs3)n2)CC1)[C@](O)(Cn1cncn1)c1ccc(F)cc1F [Example 28, (2R,3R)-2-(2,4-difluorophenyl)-3-(4-(6-(methyl(2-(thiophen-2-yl)ethyl)amino)pyridin-2-yl)piperazin-1-yl)-1-(1H-1,2,4-triazol-1-yl)butan-2-ol]
